Data published in PMC9774648, “Synthesis, Physicochemical Properties and Molecular Docking of New Benzothiazole Derivatives as Antimicrobial Agents Targeting DHPS Enzyme” (Antibiotics, 2022).
In brackets after ≈: the same amount, converted by molar mass. Where two headings read alike, the source gives them in different places.

How the values were obtained:
K. pneumonia = assay: MIC, twofold serial dilution, K. pneumonia; type: cell-based; settings: Klebsiella pneumoniae, read-out: The Minimum Inhibitory Concentration (MIC), K. pneumonia
[1] = target: DHPS enzyme (dihydropteroate synthase) (Bacillus anthracis, UniProt Q81VW8); assay: biochemical; settings: for inhibition at 0.1 µg/mL / inhibition at 1 µg/mL / inhibition at 10 µg/mL / inhibition at 100 µg/mL: read-out: Inhibition % against DHPS enzyme
DHPS enzyme (dihydropteroate synthase), sequence (Q81VW8 1-280): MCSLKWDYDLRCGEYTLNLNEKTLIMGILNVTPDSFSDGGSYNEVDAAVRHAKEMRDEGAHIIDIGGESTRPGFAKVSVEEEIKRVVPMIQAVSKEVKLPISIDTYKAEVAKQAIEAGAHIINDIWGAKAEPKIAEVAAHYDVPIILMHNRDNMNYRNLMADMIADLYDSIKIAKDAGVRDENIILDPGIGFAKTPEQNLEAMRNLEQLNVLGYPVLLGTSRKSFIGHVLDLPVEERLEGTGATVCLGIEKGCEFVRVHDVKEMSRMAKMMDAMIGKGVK

[2] = test system: K. pneumonia (ATCC: 4415); assay: Agar well diffusion, inhibition zone, K. pneumonia; type: cell-based; settings: for zone of inhibition at 15000 µg/mL: Klebsiella pneumoniae, read-out: Diameter of the Inhibition Zone, K. pneumonia
S. aureus (ATCC: 6538) = assay: Agar well diffusion, inhibition zone, S. aureus; type: cell-based; settings: Staphylococcus aureus; agar well diffusion, 15 mg/mL, 100 μL per well, 37 °C 24 h, mean ± SD, triplicate; read-out: Diameter of the Inhibition Zone, S. aureus
E. coli (ATCC: 3008) = assay: Agar well diffusion, inhibition zone, E. coli; type: cell-based; settings: for zone of inhibition at 15000 µg/mL: Escherichia coli, read-out: Diameter of the Inhibition Zone, E. coli
S. mutans (ATCC: 25175) = assay: Agar well diffusion, inhibition zone, S. mutans; type: cell-based; settings: Streptococcus mutans; agar well diffusion, 15 mg/mL, 100 μL per well, 37 °C 24 h, mean ± SD, triplicate; read-out: Diameter of the Inhibition Zone, S. mutans
S. mutans = assay: MIC, twofold serial dilution, S. mutans; type: cell-based; settings: Streptococcus mutans; twofold serial dilution in broth, 37 °C 16–20 h; read-out: The Minimum Inhibitory Concentration (MIC), S. mutans
[3] = test system: P. aeruginosa (ATCC: 27853); assay: Agar well diffusion, inhibition zone, P. aeruginosa; type: cell-based; settings: for zone of inhibition at 15000 µg/mL: Pseudomonas aeruginosa, read-out: Diameter of the Inhibition Zone, P. aeruginosa
S. aureus = assay: MIC, twofold serial dilution, S. aureus; type: cell-based; settings: Staphylococcus aureus; twofold serial dilution in broth, 37 °C 16–20 h; read-out: The Minimum Inhibitory Concentration (MIC), S. aureus
Method: The new synthetic compounds, 6a–c, 12a–c, 14a–c, 16a–c and 19a–e, were tested in vitro to evaluate antibacterial activities against Gram-negative and Gram-positive bacteria, such as E. coli (ATCC: 3008), K. pneumonia (ATCC: 4415) and P. aeruginosa (ATCC: 27853), as an example for Gram-negative bacteria, as well as S. aureus (ATCC: 6538) and S. mutans (ATCC: 25175) for Gram-positive bacteria. The antifungal activities were evaluated also for the novel compounds in vitro against C. albicans (ATCC: 10231). The antibacterial and antifungal activities were determined by the agar-diffusion method using gentamicin, ampicillin and sulfadiazine, example of sulfa drug, as standard drugs against Gram-negative and Gram-positive, while nystatin was used as standard drug against the fungal strain. Table 1 summarizes the results for all tested compounds as the average diameter of inhibition zones of microbial growth around the discs in mm ± SD.
For each strain, three to five isolated colonies were selected from the fresh agar plate and were transferred into a tube containing 3–4 mL of sterile broth medium. The bacterial suspension was mixed well and incubated at 35–37 °C for 2–6 h. The turbidity of the bacterial suspension should be equal to or greater than the turbidity of a McFarland Standard 0.5. After that, 1 mg of the tested compound (antimicrobial agent) was dissolved in 1 mL DMSO and two-fold serial dilution was done using broth medium. A fixed volume of the prepared bacterial inoculum was added to each tube and incubated for at 37 °C 16–20 h. The MIC is defined as the lowest concentration of the antimicrobial agent that inhibits visible growth of the tested isolate as observed with the unaided eye.

P. aeruginosa = assay: MIC, twofold serial dilution, P. aeruginosa; type: cell-based; settings: Pseudomonas aeruginosa, read-out: The Minimum Inhibitory Concentration (MIC), P. aeruginosa
[4] = test system: C. albicans (ATCC: 10231); assay: Agar well diffusion, inhibition zone, C. albicans; type: cell-based; settings: Candida albicans, 15 mg/mL, 100 μL per well, mean ± SD, triplicate, read-out: Diameter of the Inhibition Zone, C. albicans
[5] = twofold serial dilution in broth, 37 °C 16–20 h
[6] = agar well diffusion, 15 mg/mL, 100 μL per well, 37 °C 24 h, mean ± SD, triplicate

SMILES | MIC (K. pneumonia; [5]) | IC50 [1] | inhibition at 0.1 µg/mL ([1]; 0.1 μg/mL) | inhibition at 1 µg/mL ([1]; 1 μg/mL) | inhibition at 10 µg/mL ([1]; 10 μg/mL) | inhibition at 100 µg/mL ([1]; 100 μg/mL) | zone of inhibition at 15000 µg/mL [2, 6] | zone of inhibition at 15000 µg/mL (S. aureus (ATCC: 6538)) | Diameter of the Inhibition Zone, E. coli (E. coli (ATCC: 3008); [6]) | melting point | zone of inhibition at 15000 µg/mL (S. mutans (ATCC: 25175)) | MIC (S. mutans) | MIC (S. aureus) | MIC (P. aeruginosa; [5]) | zone of inhibition at 15000 µg/mL [3, 6] | zone of inhibition at 15000 µg/mL [4] | further results
Cc1ccc(-c2[nH][nH]c(=O)c2-c2nc3ccccc3s2)cc1 [Compound 16c, 4-(Benzo[d]thiazole-2-yl)-5-(p-tolyl)-1H-pyrazol-3(2H)-one] | 813 µM (≈ 250 µg/mL) | 35.9 µM | 13% | 31% | 48% | 68% | 24.3 ± 0.6 mm | 40.3 ± 0.6 mm | - | 239 to 241 °C | 31.3 ± 0.6 mm | 203 µM (≈ 62.4 µg/mL) | 25 µM (≈ 7.68 µg/mL) |  |  |  | Diameter of the Inhibition Zone, P. aeruginosa [3, 6]: -
Nc1ccc(S(=O)(=O)Nc2ncccn2)cc1 [Sulfadiazine, reference compound] | 999 µM (≈ 250 µg/mL) | 28.5 µM |  |  |  |  | 15.9 ± 0.9 mm | 21.5 ± 0.6 mm |  |  | 22.2 ± 1.1 mm | 499 µM (≈ 125 µg/mL) | 2000 µM (≈ 500 µg/mL) | 999 µM (≈ 250 µg/mL) | 20.6 ± 1.4 mm |  | inhibition at 0.1 µg/mL [1]: 11%; inhibition at 1 µg/mL [1]: 26%; inhibition at 10 µg/mL [1]: 56%; inhibition at 100 µg/mL [1]: 75%; zone of inhibition at 15000 µg/mL (E. coli (ATCC: 3008); [6]): 21.4 ± 0.4 mm
O=c1[nH][nH]c(-c2ccc(Cl)cc2)c1-c1nc2ccccc2s1 [Compound 16b, 4-(Benzo[d]thiazole-2-yl)-5-(4-chlorophenyl)-1H-pyrazol-3(2H)-one] |  | 23.9 µM | 16% | 31% | 52% | 72% |  | 35.3 ± 0.6 mm | - | 236 to 237.5 °C | 24.6 ± 0.6 mm | 191 µM (≈ 62.6 µg/mL) | 191 µM (≈ 62.6 µg/mL) | 762 µM (≈ 250 µg/mL) | 25.6 ± 0.6 mm | 10.6 ± 0.5 mm | Diameter of the Inhibition Zone, K. pneumonia [2, 6]: -
Cc1ccc(S(=O)(=O)NNC(=O)/C(=C/c2ccc(Cl)cc2)c2nc3ccccc3s2)cc1 [Compound 14b] | 1030 µM (≈ 500 µg/mL) | 34.6 µM | 12% | 24% | 47% | 65% | 15.6 ± 0.6 mm | 31.6 ± 0.6 mm | - | 188 to 189 °C | 21.6 ± 0.6 mm | 258 µM (≈ 125 µg/mL) | 129 µM (≈ 62.4 µg/mL) | 517 µM (≈ 250 µg/mL) | 24.3 ± 0.6 mm |  | 
O=c1[nH][nH]c(-c2ccc(F)cc2)c1-c1nc2ccccc2s1 [Compound 16a, 4-(Benzo[d]thiazole-2-yl)-5-(4-florophenyl)-1H-pyrazol-3(2H)-one] | 803 µM (≈ 250 µg/mL) | 35.9 µM | 12% | 26% | 49% | 70% | 17.3 ± 0.6 mm | 15.3 ± 0.5 mm | - | 238 to 240 °C | 25 ± 0.6 mm | 200 µM (≈ 62.3 µg/mL) | 1610 µM (≈ 500 µg/mL) | 1610 µM (≈ 500 µg/mL) | 16.6 ± 0.5 mm | 12.3 ± 0.5 mm | 
CNC(C)C1CCC(N)C(OC2C(N)CC(N)C(OC3OCC(C)(O)C(NC)C3O)C2O)O1 (stereo not shown) [Gentamicin, reference compound] |  |  |  |  |  |  |  |  |  |  |  |  |  |  |  |  | MIC (K. pneumonia): 65 µM (≈ 31 µg/mL); zone of inhibition at 15000 µg/mL ([2]; 24 h): 25 ± 0.5 mm; MIC (P. aeruginosa): 131 µM (≈ 62.6 µg/mL); zone of inhibition at 15000 µg/mL (E. coli (ATCC: 3008); 24 h): 27 ± 0.5 mm; zone of inhibition at 15000 µg/mL ([3]; 24 h): 30 ± 0.5 mm
